The record followed here is the supplement of paper PMC10307832.

Assay in all cases: relative viability (nuclei count vs DMSO), 5 days (fraction); higher = more cells survive
Compound in test [1]: CC(C)(C)c1cc(NC(=O)Nc2ccc(-c3cn4c(n3)sc3cc(OCCN5CCOCC5)ccc34)cc2)no1 [Quizartinib] + CC(=O)c1c(C)c2cnc(Nc3ccc(N4CCNCC4)cn3)nc2n(C2CCCC2)c1=O [Palbociclib] (partner 0.5 µM)
The method in brief:
(§1)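 Lung cancer cell lines in 1536-well plates were dosed by pin tool the day after seeding, either with one drug alone or with a fixed anchor-drug dose plus five library-drug doses (not always all listed) in √10 steps. After 5 days, cells were fixed and their nuclei stained in one step (final 0.05% Triton X-100, 1% formaldehyde, 1 ug/ml Hoechst), then counted on 4× images. Relative viability is the nuclei count in treated wells divided by that in vehicle wells. Values are medians of duplicate plates.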

Compound in the test “Quizartinib + Alpelisib”: CC(C)(C)c1cc(NC(=O)Nc2ccc(-c3cn4c(n3)sc3cc(OCCN5CCOCC5)ccc34)cc2)no1 [Quizartinib] + Cc1nc(NC(=O)N2CCC[C@H]2C(N)=O)sc1-c1ccnc(C(C)(C)C(F)(F)F)c1 [Alpelisib] (partner 2 µM)
The method in brief:
as §1

Compound in the test “YM155 + Pictilisib”: COCC[n+]1c2c(n(Cc3cnccn3)c1C)C(=O)c1ccccc1C2=O [YM155] + CS(=O)(=O)N1CCN(Cc2cc3nc(-c4cccc5[nH]ncc45)nc(N4CCOCC4)c3s2)CC1 [Pictilisib] (partner 1 µM)
The procedure, abridged:
as §1

Compound in the test “YM155 + Pemetrexed”: COCC[n+]1c2c(n(Cc3cnccn3)c1C)C(=O)c1ccccc1C2=O [YM155] + Nc1nc2[nH]cc(CCc3ccc(C(=O)N[C@@H](CCC(=O)O)C(=O)O)cc3)c2c(=O)[nH]1 [Pemetrexed] (partner 0.2 µM)
The method in brief:
as §1

For the cell line EKVX, the relative viability stood at 0.354 in test [1] (first compound 0.003162 µM); 0.397 in test [1] (first compound 0.01 µM); 0.451 in test [1] (first compound 0.03162 µM); 0.283 in test [1] (first compound 0.1 µM); 0.799 in the test with Quizartinib + Alpelisib (first compound 0.001 µM); 0.841 with Quizartinib + Alpelisib (first compound 0.003162 µM). For the same cell line, the relative viability with Quizartinib + Alpelisib (first compound 0.01 µM) amounted to 0.924; with Quizartinib + Alpelisib (first compound 0.03162 µM), 0.914; with Quizartinib + Alpelisib (first compound 0.1 µM), 0.973; with YM155 + Pictilisib (first compound 0.002 µM), 0.422; with YM155 + Pictilisib (first compound 0.006325 µM), 0.497; with YM155 + Pictilisib (first compound 0.02 µM), 0.439. The relative viability amounted to 0.339 with YM155 + Pictilisib (first compound 0.06325 µM); 0.431 in the test with YM155 + Pemetrexed (first compound 0.002 µM); 0.437 in the test with YM155 + Pemetrexed (first compound 0.006325 µM); 0.399 in the test with YM155 + Pemetrexed (first compound 0.02 µM); 0.234 with YM155 + Pemetrexed (first compound 0.06325 µM).

Regarding EMC-BAC-2, the relative viability in test [1] (first compound 0.001 µM) is 0.456; in test [1] (first compound 0.003162 µM), 0.483; in test [1] (first compound 0.01 µM), 0.547; in test [1] (first compound 0.1 µM), 0.544; with Quizartinib + Alpelisib (first compound 0.001 µM), 0.695; with Quizartinib + Alpelisib (first compound 0.003162 µM), 0.696. Further, the relative viability came to 0.762 with Quizartinib + Alpelisib (first compound 0.01 µM); 0.766 with Quizartinib + Alpelisib (first compound 0.03162 µM); 0.73 with Quizartinib + Alpelisib (first compound 0.1 µM); 0.545 with YM155 + Pictilisib (first compound 0.002 µM); 0.533 in the test with YM155 + Pictilisib (first compound 0.006325 µM); 0.556 in the test with YM155 + Pictilisib (first compound 0.02 µM). Further, the relative viability with YM155 + Pictilisib (first compound 0.06325 µM) worked out at 0.484; with YM155 + Pemetrexed (first compound 0.002 µM) it was 0.456; with YM155 + Pemetrexed (first compound 0.006325 µM) it was 0.486; with YM155 + Pemetrexed (first compound 0.02 µM) it was 0.463; with YM155 + Pemetrexed (first compound 0.06325 µM) it was 0.424.

In the case of EPLC-272H, the relative viability in test [1] (first compound 0.001 µM) was 0.304; in test [1] (first compound 0.003162 µM), 0.355; in test [1] (first compound 0.01 µM) it was 0.301; in test [1] (first compound 0.03162 µM) it was 0.311; in test [1] (first compound 0.1 µM), 0.312; with Quizartinib + Alpelisib (first compound 0.001 µM) it was 0.667. Besides, the relative viability with Quizartinib + Alpelisib (first compound 0.003162 µM) stood at 1.04; with Quizartinib + Alpelisib (first compound 0.01 µM), 0.95; in the test with Quizartinib + Alpelisib (first compound 0.03162 µM) it was 0.969; with Quizartinib + Alpelisib (first compound 0.1 µM), 1.06; with YM155 + Pictilisib (first compound 0.002 µM), 0.307; in the test with YM155 + Pictilisib (first compound 0.006325 µM), 0.268. Also, the relative viability was 0.286 with YM155 + Pictilisib (first compound 0.02 µM); 0.328 in the test with YM155 + Pictilisib (first compound 0.06325 µM); 0.327 with YM155 + Pemetrexed (first compound 0.002 µM); 0.309 with YM155 + Pemetrexed (first compound 0.006325 µM); 0.316 with YM155 + Pemetrexed (first compound 0.02 µM); 0.319 in the test with YM155 + Pemetrexed (first compound 0.06325 µM).

As to H3255, the relative viability is 0.318 in test [1] (first compound 0.001 µM); 0.358 in test [1] (first compound 0.003162 µM); 0.329 in test [1] (first compound 0.01 µM); 0.305 in test [1] (first compound 0.03162 µM); 0.309 in test [1] (first compound 0.1 µM); 0.55 with Quizartinib + Alpelisib (first compound 0.001 µM). The relative viability with Quizartinib + Alpelisib (first compound 0.003162 µM) was found to be 0.619; with Quizartinib + Alpelisib (first compound 0.01 µM), 0.795; in the test with Quizartinib + Alpelisib (first compound 0.03162 µM) it was 0.63; with Quizartinib + Alpelisib (first compound 0.1 µM), 0.797; in the test with YM155 + Pictilisib (first compound 0.002 µM), 0.483; with YM155 + Pictilisib (first compound 0.006325 µM), 0.5. For the same cell line, the relative viability stood at 0.477 in the test with YM155 + Pictilisib (first compound 0.02 µM); 0.424 with YM155 + Pictilisib (first compound 0.06325 µM); 0.587 in the test with YM155 + Pemetrexed (first compound 0.002 µM); 0.627 in the test with YM155 + Pemetrexed (first compound 0.006325 µM); 0.565 with YM155 + Pemetrexed (first compound 0.02 µM); 0.566 in the test with YM155 + Pemetrexed (first compound 0.06325 µM).

As for HARA, the relative viability is 0.233 in test [1] (first compound 0.001 µM); 0.23 in test [1] (first compound 0.003162 µM); 0.261 in test [1] (first compound 0.01 µM); 0.248 in test [1] (first compound 0.03162 µM); 0.259 in test [1] (first compound 0.1 µM); 0.485 in the test with Quizartinib + Alpelisib (first compound 0.001 µM). Also, the relative viability stood at 0.78 with Quizartinib + Alpelisib (first compound 0.003162 µM); 0.893 with Quizartinib + Alpelisib (first compound 0.01 µM); 0.791 with Quizartinib + Alpelisib (first compound 0.03162 µM); 0.749 in the test with Quizartinib + Alpelisib (first compound 0.1 µM); 0.371 in the test with YM155 + Pictilisib (first compound 0.002 µM); 0.397 with YM155 + Pictilisib (first compound 0.006325 µM). The relative viability was found to be 0.533 with YM155 + Pictilisib (first compound 0.02 µM); 0.461 in the test with YM155 + Pictilisib (first compound 0.06325 µM); 0.235 with YM155 + Pemetrexed (first compound 0.006325 µM); 0.228 with YM155 + Pemetrexed (first compound 0.02 µM); 0.268 with YM155 + Pemetrexed (first compound 0.06325 µM).
